Reference: the supplement of paper PMC5579334
± gives the standard deviation of the averaged measurements.

Assays:
[1] = system: ST8814; experiment: relative IC50 (inflection point of fitted dose-response curve, CellTiter-Glo viability, 72 h; top asymptote may be below 50% inhibition); higher = less potent
How it was run: (§1)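 Viability was scored by CellTiter-Glo ATP luminescence, scaled from vehicle to positive-control wells, with duplicates averaged where present. The cells, MPNST lines and primary human Schwann cells at 750–1000 per well, sat 72 h at 37 °C, 5% CO2, in 384-well plates preprinted with each compound at five concentrations in 10-fold steps. Four-parameter logistic fits were run on the data. These fits give drug sensitivity score and relative IC50 censored at the top concentration, and percent inhibition is reported at the top concentration.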

[2] = system: HS-PSS; experiment: as above
How it was run: as §1

[3] = system: HS-Sch-2; experiment: as above
How it was run: as §1

[4] = system: YST-1; experiment: as above
How it was run: as §1

[5] = system: ST8814; experiment: relative IC50 (inflection point of fitted dose-response curve, CellTox-Green cytotoxicity, 72 h; top asymptote may be below 50%); higher = less potent
How it was run: (§2)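 MPNST cell lines and primary human Schwann cells were incubated 72 h at 37 °C in 384-well plates holding five 10-fold compound dilutions. CellTox-Green was added before seeding at a final 1:1000 dilution and reported fluorescence from DNA released by disrupted cells. Signals were scaled to vehicle and positive-control wells, and cultures failing plate quality control were dropped. Drug sensitivity score and relative IC50 come from four-parameter logistic fits, with IC50 censored at the top concentration.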

[6] = system: HS-PSS; experiment: as above
How it was run: as §2

[7] = system: STS26T; experiment: as above
How it was run: as §2

[8] = system: HSC1; experiment: as above
How it was run: as §2

[9] = system: HSC2; experiment: as above
How it was run: as §2

[10] = system: STS26T; experiment: relative IC50 (inflection point of fitted dose-response curve, CellTiter-Glo viability, 72 h; top asymptote may be below 50% inhibition); higher = less potent
How it was run: as §1

[11] = system: HSC2; experiment: as above
How it was run: as §1

[12] = system: HSC1; experiment: as above
How it was run: as §1

[13] = system: ST8814; experiment: % inhibition of CellTiter-Glo viability at highest tested concentration (72 h), relative to DMSO and benzethonium chloride controls; higher = more inhibition
How it was run: as §1

[14] = system: HS-PSS; experiment: as above
How it was run: as §1

[15] = system: HSC2 (primary human Schwann cells); experiment: as above
How it was run: as §1

[16] = system: HSC1 (primary human Schwann cells); experiment: as above
How it was run: as §1

[17] = system: STS26T; experiment: as above
How it was run: as §1

[18] = system: HS-Sch-2; experiment: as above
How it was run: as §1

[19] = system: S1507-2; experiment: as above
How it was run: as §1

[20] = system: S462; experiment: as above
How it was run: as §1

[21] = system: YST-1; experiment: as above
How it was run: as §1

[22] = system: ST8814; experiment: drug sensitivity score (DSS, CellTox-Green cytotoxicity, 72 h) (DSS (dimensionless)); higher = more cytotoxic; extreme values may be limits of the assay
How it was run: as §2

[23] = system: HS-PSS; experiment: as above
How it was run: as §2

[24] = system: HSC2 (primary human Schwann cells); experiment: as above
How it was run: as §2

[25] = system: HSC1 (primary human Schwann cells); experiment: as above
How it was run: as §2

[26] = system: STS26T; experiment: as above
How it was run: as §2

[27] = system: S1507-2; experiment: as above
How it was run: as §2

[28] = system: ST8814; experiment: drug sensitivity score (DSS, CellTiter-Glo viability, 72 h) (DSS (dimensionless)); higher = more sensitive; extreme values may be limits of the assay
How it was run: as §1

[29] = system: HS-PSS; experiment: as above
How it was run: as §1

[30] = system: HSC2 (primary human Schwann cells); experiment: as above
How it was run: as §1

[31] = system: HSC1 (primary human Schwann cells); experiment: as above
How it was run: as §1

[32] = system: STS26T; experiment: as above
How it was run: as §1

[33] = system: HS-Sch-2; experiment: as above
How it was run: as §1

[34] = system: S1507-2; experiment: as above
How it was run: as §1

[35] = system: S462; experiment: as above
How it was run: as §1

[36] = system: YST-1; experiment: as above
How it was run: as §1

Row | SMILES | relative IC50 [1] [nM] | relative IC50 [2] [nM] | relative IC50 [3] [nM] | relative IC50 [4] [nM] | relative IC50 [5] [nM] | relative IC50 [6] [nM] | relative IC50 [7] [nM] | relative IC50 [8] [nM] | relative IC50 [9] [nM] | relative IC50 [10] [nM] | relative IC50 [11] [nM] | relative IC50 [12] [nM] | % inhibition [13] [%] | % inhibition [14] [%] | % inhibition [15] [%] | % inhibition [16] [%] | % inhibition [17] [%] | % inhibition [18] [%] | % inhibition [19] [%] | % inhibition [20] [%] | % inhibition [21] [%] | drug sensitivity score [22] | drug sensitivity score [23] | drug sensitivity score [24] | drug sensitivity score [25] | drug sensitivity score [26] | drug sensitivity score [27] | drug sensitivity score [28] | drug sensitivity score [29] | drug sensitivity score [30] | drug sensitivity score [31] | drug sensitivity score [32] | drug sensitivity score [33] | drug sensitivity score [34] | drug sensitivity score [35] | drug sensitivity score [36]
1 | C[C@]12CC[C@H](O)CC1=CC[C@@H]1[C@@H]2CC[C@]2(C)C(c3cccnc3)=CC[C@@H]12 [Abiraterone] | > 5000 | > 5000 | > 5000 | > 5000 | > 5000 | > 5000 | > 5000 | > 5000 | > 5000 | – | – | – | – | – | – | – | – | – | – | – | – | – | – | – | – | – | – | – | – | – | – | – | – | – | – | –
2 | CC1(C)CCC(CN2CCN(c3ccc(C(=O)NS(=O)(=O)c4ccc(NCC5CCOCC5)c([N+](=O)[O-])c4)c(Oc4cnc5[nH]ccc5c4)c3)CC2)=C(c2ccc(Cl)cc2)C1 [ABT-199] | – | – | – | – | – | – | > 10000 | > 10000 | > 10000 | > 10000 | – | – | – | – | – | – | – | – | – | – | – | – | – | – | – | – | – | – | – | – | – | – | – | – | – | –
3 | C[C@@H](Oc1cc(-c2cnn(C3CCNCC3)c2)cnc1N)c1c(Cl)ccc(F)c1Cl [Crizotinib] | > 1000 | 367 | – | 393 | > 1000 | > 1000 | > 1000 | > 1000 | > 1000 | > 1000 | – | – | – | – | – | – | – | – | – | – | – | – | – | – | – | – | – | – | – | – | – | – | – | – | – | –
4 | COc1cc(CCc2cc(NC(=O)c3ccc(N4CC(C)NC(C)C4)cc3)n[nH]2)cc(OC)c1 (stereo not drawn) [AZD4547] | > 1000 | > 1000 | 253 | > 1000 | > 1000 | > 1000 | > 1000 | > 1000 | > 1000 | > 1000 | – | – | – | – | – | – | – | – | – | – | – | – | – | – | – | – | – | – | – | – | – | – | – | – | – | –
5 | COc1cc2ncnc(Nc3ccc(F)c(Cl)c3)c2cc1NC(=O)/C=C/CN1CCCCC1 [Dacomitinib] | – | 144 | 148 | > 1000 | > 1000 | – | > 1000 | > 1000 | > 1000 | – | – | – | – | – | – | – | – | – | – | – | – | – | – | – | – | – | – | – | – | – | – | – | – | – | – | –
6 | CCc1c(C(=O)C(N)=O)c2c(OCC(=O)O)cccc2n1Cc1ccccc1 [Varespladib] | > 10000 | > 10000 | > 10000 | > 10000 | > 10000 | > 10000 | > 10000 | > 10000 | > 10000 | > 10000 | > 10000 | – | – | – | – | – | – | – | – | – | – | – | – | – | – | – | – | – | – | – | – | – | – | – | – | –
7 | Cc1cc(Nc2nc(N[C@@H](C)c3ncc(F)cn3)ncc2Cl)[nH]n1 [AZD1480] | – | – | > 1000 | – | > 1000 | > 1000 | – | > 1000 | – | – | – | 193 | – | – | – | – | – | – | – | – | – | – | – | – | – | – | – | – | – | – | – | – | – | – | – | –
8 | CC(C)c1cc(-c2n[nH]c(=O)n2-c2ccc3c(ccn3C)c2)c(O)cc1O [Ganetespib] (max concentration tested 1000 nM) | – | – | – | – | – | – | – | – | – | – | – | – | 101 | 84.2 | 98.5 | 99.1 | 94.1 | 101 | 94.5 | 99.6 | 79.1 | 17.2 | 4.34 | 20.9 | 21.1 | 10.9 | 12.7 | 20.7 | 13.9 | 20.6 | 21.5 | 17.6 | 19.6 | 15.5 | 19.2 | 13.7
9 | C[C@@H](Oc1cc(-c2cnn(C3CCNCC3)c2)cnc1N)c1c(Cl)ccc(F)c1Cl [Crizotinib] (max concentration tested 1000 nM) | – | – | – | – | – | – | – | – | – | – | – | – | 7.26 | 48.6 | 20.8 | 21.3 | 1.87 | 19.5 | 13.3 ± 2.3 | 13.3 ± 4.8 | 27.5 | 0 | 0 | 0 | 0 | 0 | 1.38 ± 2 | 0 | 2.17 | 1.21 | 2.09 | 0 | 0.41 | 0.701 ± 0.72 | 0.409 ± 0.58 | 0.85
10 | C#Cc1cccc(Nc2ncnc3cc(OC)c(OCCCCCCC(=O)NO)cc23)c1 [CUDC-101] (max concentration tested 10000 nM) | – | – | – | – | – | – | – | – | – | – | – | – | 102 | 95 | 102 | 102 | 100 | 101 | 103 ± 1.6 | 102.2 ± 0.43 | 99.1 | 9.2 | 6.98 | 11.8 | 11 | 6 | 9.97 ± 2.9 | 12.3 | 12.6 | 15 | 15.8 | 8.5 | 15.7 | 11.9 ± 0.6 | 13.3 ± 1.8 | 20.8
11 | CCc1c(C(=O)C(N)=O)c2c(OCC(=O)O)cccc2n1Cc1ccccc1 [Varespladib] (max concentration tested 10000 nM) | – | – | – | – | – | – | – | – | – | – | – | – | 5.74 | 4.52 | 9.85 | 13.8 | 7.98 | 0.4 | 6.19 ± 5.8 | 7.05 ± 10 | 3.3 | 0 | 0 | 0 | 0 | 0 | 0.519 ± 0.73 | 0 | 0 | 0 | 0.748 | 0 | 0 | 0.0077 ± 0.011 | 0.641 ± 0.91 | 0
12 | CC(=O)[C@]1(O)Cc2c(O)c3c(c(O)c2[C@@H](O[C@H]2C[C@H](N)[C@H](O)[C@H](C)O2)C1)C(=O)c1ccccc1C3=O [Idarubicin] (max concentration tested 1000 nM) | – | – | – | – | – | – | – | – | – | – | – | – | 88 | 92.3 | 95.5 | 94.9 | 97.8 | 102 | 95.7 ± 1.7 | 99.5 ± 0.8 | 101 | 12.2 | 5.11 | 7.65 | 8.63 | 15.8 | 10.6 ± 0.28 | 16.2 | 10.1 | 17.6 | 18.1 | 20.5 | 15.7 | 17.1 ± 2.4 | 23.5 ± 0.84 | 24.2
13 | C=CCN(/C=C1/C(=O)O[C@H](COC)[C@@]2(C)C1=C(O)C(=O)C1=C2[C@H](OC(C)=O)C[C@]2(C)C(=O)CC[C@@H]12)CC=C [Sonolisib] (max concentration tested 10000 nM) | – | – | – | – | – | – | – | – | – | – | – | – | 7.84 | 3.89 | 13.1 | 6.67 | 11.4 | -0.71 | 15.9 ± 0.9 | 17.1 ± 5.5 | 7.12 | 0 | 0 | 0 | 0 | 0 | 0 | 0.745 | 0 | 0.415 | 0 | 0.263 | 0 | 0.798 ± 0.34 | 0.831 ± 1.2 | 0
14 | COc1cccc2c1C(=O)c1c(O)c3c(c(O)c1C2=O)C[C@@](O)(C(C)=O)C[C@@H]3O[C@H]1C[C@H](N)[C@H](O)[C@H](C)O1 [Daunorubicin] (max concentration tested 1000 nM) | – | – | – | – | – | – | – | – | – | – | – | – | 88.3 | 88.2 | 101 | 99.9 | 98.5 | 102 | 96.11 ± 0.088 | 98.64 ± 0.44 | 101 | 1.13 | 0 | 3.16 | 2.35 | 3.13 | 0 | 9.95 | 9.45 | 12.7 | 10.4 | 12.9 | 10.6 | 9.24 ± 0.51 | 14.9 ± 0.27 | 17.9
